Legend:
Test in all cases: Field test, activity against bugs on treated host plants
Type in all cases: in vivo
[1] = system: Cletus trigonus (Slender rice bug); conditions: crop Rice; rate 50 ppm (the 1st table r14); field plots, spray
Experimental: (§1) Host plants (such as rice, wheat, and cabbage) were treated with 50, 150 or 300 ppm of a compound of formula I. Treatments were diluted in water and applied at 400 to 600 liters/hectare to experimental plots using standard application equipment (such as a backpack sprayer). Each treatment was replicated 3 times and comprised an area of approximately 30 square meters. Pre-treatment evaluations of the number of live insects per plant were made one day prior to first treatment. Post-treatment evaluations were made at 5 to 7 day intervals. Field studies were conducted under ambient conditions during normal growing season.

[2] = system: Eurydema ornatum (Cabbage bug); conditions: crop Cabbage; rate 50 ppm (the 1st table r13); field plots, spray
Experimental: as §1

[3] = system: Euschistus spp (Stink bug spp.); conditions: crop Rice; rate 300 ppm (the 1st table r12); field plots, spray
Experimental: as §1

[4] = system: Halticus bracteatus (Garden fleahopper); conditions: crop Alfalfa; rate 300 ppm (the 1st table r11); field plots, spray
Experimental: as §1

[5] = system: Lagynotomus elongatus (Brown rice stink bug); conditions: crop Rice; rate 150 ppm (the 1st table r10); field plots, spray
Experimental: as §1

[6] = system: Leptocorisa corbetti (Leaf-footed bug); conditions: crop Rice; rate 50 ppm (the 1st table r9); field plots, spray
Experimental: as §1

[7] = system: Nezara antennata (Common green stink bug); conditions: crop Rice; rate 300 ppm (the 1st table r6); field plots, spray
Experimental: as §1

Paromius exiguus = conditions: crop Rice; rate 300 ppm (the 1st table r5); field plots, spray
Experimental: as §1

[8] = system: Stenotus rubrovittatus (Sorghum plant bug); conditions: crop Rice; rate 50 ppm (the 1st table r4); field plots, spray
Experimental: as §1

[9] = system: Trigonotylus coelestialum (Rice leaf bug); conditions: crop Rice; rate 50 ppm (the 1st table r3); field plots, spray
Experimental: as §1

[10] = system: Lygus hesperus (Western plant bug); conditions: crop Alfalfa; rate 100 ppm (the 1st table r8); field plots, spray
Experimental: as §1, with “Host plants (such as rice, wheat, and cabbage) were treated with 50, 150 or 300 ppm of a compound of formula I.” left out

Measured: control

CCNC(=NNc1c(Cl)cc(C(F)(F)F)cc1Cl)C1(C)CC1(Cl)Cl (stereo not drawn) [N-ethyl-2,2-dichloro-1-methylcyclopropane-carboxamide, 2-(2,6-dichloro-α,α,α-trifluoro-p-tolyl)hydrazone]
over 75%: all assays above

Source: patent publication US20090018201A1, “Method of Combating Bugs” (BASF Aktiengesellschaft, priority 2005, published 2009)
